Columns and labels:
MNK2a = MNK2a (Homo sapiens (Human), UniProt Q9HBH9); experiment: MNK2a in vitro kinase assay (Assay 2), ADP-Glo; type: biochemical; conditions: assay 2; read-out: MNK2 IC50
Excerpt: B. MNK2a In Vitro Kinase Assay (Assay 2)

MNK1a = MNK1a (Homo sapiens (Human), UniProt Q9BUB5); experiment: MNK1 in vitro kinase assay (Assay 3), Z'-LYTE; type: biochemical; conditions: for inhibition at 1 µM: compound concentration of 1 μM, read-out: MNK1 % INH
MNK1a, sequence (Q9BUB5 other isoform, or with tags, fused parts or gaps): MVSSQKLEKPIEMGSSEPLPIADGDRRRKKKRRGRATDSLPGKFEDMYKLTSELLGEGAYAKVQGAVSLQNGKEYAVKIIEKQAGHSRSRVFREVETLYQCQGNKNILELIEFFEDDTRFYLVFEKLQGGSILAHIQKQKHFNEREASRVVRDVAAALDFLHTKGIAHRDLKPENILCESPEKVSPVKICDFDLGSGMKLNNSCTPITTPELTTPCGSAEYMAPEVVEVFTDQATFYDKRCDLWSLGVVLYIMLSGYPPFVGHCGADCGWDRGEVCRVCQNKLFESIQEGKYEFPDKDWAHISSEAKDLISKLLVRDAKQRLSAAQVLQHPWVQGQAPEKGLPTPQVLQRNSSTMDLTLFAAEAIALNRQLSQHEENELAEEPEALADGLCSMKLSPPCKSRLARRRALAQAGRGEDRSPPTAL

MNK2a, sequence (Q9HBH9 whole entry): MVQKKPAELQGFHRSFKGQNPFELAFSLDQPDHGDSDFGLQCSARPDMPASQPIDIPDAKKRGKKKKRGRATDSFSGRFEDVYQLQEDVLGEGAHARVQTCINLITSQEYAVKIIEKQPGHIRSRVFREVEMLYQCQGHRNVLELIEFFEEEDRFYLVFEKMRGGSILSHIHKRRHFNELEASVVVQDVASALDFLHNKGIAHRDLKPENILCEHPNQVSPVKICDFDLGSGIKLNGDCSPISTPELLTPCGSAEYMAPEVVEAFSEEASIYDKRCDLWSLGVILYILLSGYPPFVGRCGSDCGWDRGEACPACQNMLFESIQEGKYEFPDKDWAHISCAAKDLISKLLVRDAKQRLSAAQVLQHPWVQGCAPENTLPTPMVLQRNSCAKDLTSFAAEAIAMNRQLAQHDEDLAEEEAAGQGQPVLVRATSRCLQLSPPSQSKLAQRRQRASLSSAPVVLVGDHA

Row | SMILES | IC50 (MNK2a) [nM] | inhibition at 1 µM (MNK1a) [%] | IC50 (MNK1a) [nM]
1 | CS(C)(=O)=Nc1cc(F)c2c(Nc3ccc(F)cc3O[C@H]3COC[C@@H]3O)ncnc2c1 [Example 2.55] | 3 | 91 | 
2 | O=S1(=Nc2cc(Cl)c3c(Nc4ccc(F)cc4O[C@H]4COC[C@@H]4O)ncnc3c2)CCCC1 [Example 1.9] | 2 | 98 | 28
3 | CO[C@@H]1CN(S(C)(=O)=O)C[C@H]1Oc1ncccc1Nc1ncnc2cc(N=S3(=O)CCCC3)cc(C)c12 [Example 6.5] | 28 | 60 | 
4 | Cc1cc(N=S(C)(C)=O)cc2ncnc(Nc3ccc(Cl)cc3O[C@H]3COC[C@@H]3O)c12 [Example 1.23] | 5 | 99 | 
5 | O=S1(=Nc2cc(Cl)c3c(Nc4cccnc4O[C@H]4COC[C@@H]4O)ncnc3c2)CCC1 [Example 1.13] | 4 | 100 | 
6 | O=S1(=Nc2cc(Cl)c3c(Nc4cccnc4O[C@H]4COC[C@@H]4O)ncnc3c2)CCCC1 [Example 1.15] | 3 | 103 | 34
7 | CO[C@@H]1CN(C(C)=O)C[C@H]1Oc1cc(F)ccc1Nc1ncnc2cc(N=S3(=O)CCCC3)cc(C)c12 [Example 6.2] | 185 | 31 | 
8 | Cc1cc(N=S2(=O)CCCC2)cc2ncnc(Nc3ccc(F)cc3O[C@H]3COC[C@H]3C#N)c12 [Example 1.1] | 9 |  | 104
9 | CC(=O)O[C@H]1CN(C(C)=O)C[C@@H]1Oc1ncccc1Nc1ncnc2cc(N=S3(=O)CCCC3)cc(C)c12 [Example 6.10] | 378 | 38 | 
10 | Cc1cc(N=S(C)(C)=O)cc2ncnc(Nc3ccc(F)cc3O[C@H]3COC[C@H]3OCC3CC3)c12 (racemic) [Example 7.2] | 6 | 94 | 
11 | Cc1cc(N=S2(=O)CCCC2)cc2ncnc(Nc3ccc(Cl)cc3O[C@H]3COC[C@@H]3O)c12 [Example 1.27] | 3 |  | 33
12 | Cc1cc(N=[S@@](C)(=O)c2ccccc2)cc2ncnc(Nc3ccc(F)cc3O[C@@H]3COC[C@@H]3O)c12 [Example 2.64] | 9 | 88 | 
13 | CO[C@@H]1CN(C(=O)OCc2ccccc2)C[C@H]1Oc1cc(F)ccc1Nc1ncnc2cc(N=S3(=O)CCCC3)cc(C)c12 [Example 2.15] | 78 | 31 | 
14 | CO[C@@H]1CN(CC(F)F)C[C@H]1Oc1ncccc1Nc1ncnc2cc(N=S3(=O)CCCC3)cc(C)c12 [Example 5.5] | 13 | 85 | 
15 | COc1cc(N=S2(=O)CCCC2)cc2ncnc(Nc3ccc(F)cc3O[C@H]3COC[C@H]3OC)c12 (racemic) [Example 9.2] | 2 | 94 | 
16 | CS(C)(=O)=Nc1cc(Cl)c2c(Nc3ccc(Cl)nc3O[C@H]3COC[C@@H]3O)ncnc2c1 [Example 1.19] | 4 | 99 | 
17 | CO[C@@H]1CNC[C@H]1Oc1ncccc1Nc1ncnc2cc(N=S3(=O)CCCC3)cc(C)c12 [Example 4.4] | 11 | 93 | 
18 | Cc1cc(N=S(C)(C)=O)cc2ncnc(Nc3ccc(F)cc3O[C@H]3CN(C)C[C@@H]3O)c12 [Example 2.62] | 33 | 78 | 
19 | Cc1c(F)c(N=S(C)(C)=O)cc2ncnc(Nc3ccc(F)cc3O[C@H]3COC[C@@H]3O)c12 [Example 1.33] | 8 | 96 | 

Row | SMILES | IC50 (MNK2a) [nM] | inhibition at 1 µM (MNK1a) [%] | IC50 (MNK1a) [nM]
20 | Cc1cc(N=S(C)(C)=O)cc2ncnc(Nc3ccc(F)cc3O[C@H]3CN(S(C)(=O)=O)C[C@@H]3O)c12 [Example 2.59] | 4 | 99 | 
21 | COCCO[C@@H]1COC[C@@H]1Oc1cc(F)ccc1Nc1ncnc2cc(N=S(C)(C)=O)cc(C)c12 (racemic) [Example 7.1] | 45 | 62 | 
22 | Cc1cc(N=S2(=O)CCCC2)cc2ncnc(Nc3ccc(F)cc3O[C@H]3COC[C@@H]3O)c12 [Example 2.29] | 2 | 104 | 40
23 | COc1cc(N=S(C)(C)=O)cc2ncnc(Nc3ccc(F)cc3O[C@H]3COC[C@H]3OC)c12 (racemic) [Example 9.1] | 2 | 96 | 
24 | Cc1cc(N=S2(=O)CCC(C)C2)cc2ncnc(Nc3ccc(F)cc3O[C@H]3COC[C@@H]3O)c12 (stereo partly shown) [Example 2.85] | 3 | 97 | 
25 | CS(C)(=O)=Nc1cc(Cl)c2c(Nc3cccnc3O[C@H]3COC[C@@H]3O)ncnc2c1 [Example 1.14] | 5 | 96 | 
26 | CO[C@@H]1COC[C@@H]1Oc1cc(F)ccc1Nc1ncnc2cc(N=S(C)(C)=O)cc(C)c12 [Example 14.8] | 1 |  | 80
27 | Cc1cc(N=S(C)(=O)c2cccnc2)cc2ncnc(Nc3ccc(F)cc3O[C@H]3COC[C@@H]3O)c12 (stereo partly shown) [Example 2.81] | 14 | 91 | 
28 | CS(C)(=O)=Nc1cc(Br)c2c(Nc3ccc(F)cc3O[C@H]3COC[C@@H]3O)ncnc2c1 [Example 1.18] | 2 | 97 | 
29 | COc1cc(N=S(C)(=O)C(C)C)cc2ncnc(Nc3ccc(F)cc3O[C@H]3COC[C@H]3O)c12 (mixture of isomers) [Example 9.20] | 23 | 87 | 
30 | CO[C@@H]1CN(S(C)(=O)=O)C[C@H]1Oc1cc(F)ccc1Nc1ncnc2cc(N=S(C)(C)=O)cc(C)c12 [Example 6.7] | 62 | 35 | 
31 | Cc1cc(N=S2(=O)CCC2)cc2ncnc(Nc3ccc(Cl)cc3O[C@H]3COC[C@@H]3O)c12 [Example 1.29] | 2 | 100 | 
32 | Cc1cc(N=S2(=O)CCC(O)CC2)cc2ncnc(Nc3ccc(F)cc3O[C@@H]3COC[C@@H]3O)c12 (mixture of isomers) [Example 2.76] | 7 | 96 | 
33 | CS(C)(=O)=Nc1cc(OCCF)c2c(Nc3ccc(F)cc3O[C@H]3COC[C@@H]3O)ncnc2c1 [Example 9.8] | 39 | 75 | 
34 | COc1cc(N=S(C)(=O)C(C)(C)C)cc2ncnc(Nc3ccc(F)cc3O[C@H]3COC[C@H]3O)c12 (mixture of isomers) [Example 9.19] | 42 |  | 329
35 | CO[C@@H]1CNC[C@H]1Oc1ncccc1Nc1ncnc2cc(N=S(C)(C)=O)cc(C)c12 [Example 4.5] | 33 | 63 | 
36 | O=S1(=Nc2cc(Cl)c3c(Nc4ccc(Cl)nc4O[C@H]4COC[C@@H]4O)ncnc3c2)CCCC1 [Example 1.17] | 2 | 103 | 
37 | Cc1cc(N=S(C)(C)=O)cc2ncnc(Nc3cccnc3O[C@@H]3COC[C@H]3O)c12 [Example 2.51] | 11 | 81 | 
38 | Cc1cc(N=S2(=O)CCC(C)C2)cc2ncnc(Nc3ccc(F)cc3O[C@@H]3COC[C@@H]3O)c12 (mixture of isomers) [Example 2.83] | 4 | 97 | 

Row | SMILES | IC50 (MNK2a) [nM] | inhibition at 1 µM (MNK1a) [%] | IC50 (MNK1a) [nM]
39 | COc1cc(N=S2(=O)CCC(C)C2)cc2ncnc(Nc3ccc(F)cc3O[C@H]3COC[C@H]3O)c12 (mixture of isomers) [Example 9.23] | 8 | 93 | 
40 | CO[C@@H]1CNC[C@H]1Oc1cc(F)ccc1Nc1ncnc2cc(N=S(C)(C)=O)cc(C)c12 [Example 4.1] | 45 | 64 | 
41 | CS(C)(=O)=Nc1cc(OC(F)F)c2c(Nc3ccc(F)cc3O[C@H]3COC[C@@H]3O)ncnc2c1 [Example 1.11] | 32 | 64 | 
42 | Cc1cc(N=S2(=O)CCCC2)cc2ncnc(Nc3ccc(Cl)cc3O[C@@H]3COC[C@H]3O)c12 [Example 1.32] | 4 | 94 | 
43 | COc1cc(N=S2(=O)CCC2)cc2ncnc(Nc3ccc(F)cc3O[C@H]3COC[C@H]3O)c12 (racemic) [Example 9.16] | 7 | 98 | 
44 | COc1cc(N=S(C)(C)=O)cc2ncnc(Nc3ccc(F)cc3O[C@H]3COC[C@H]3O)c12 (racemic) [Example 9.3] | 26 | 90 | 
45 | COc1cc(N=S2(=O)CCC2)cc2ncnc(Nc3cccnc3O[C@H]3COC[C@H]3O)c12 (racemic) [Example 8.4] | 11 |  | 104
46 | Cc1cc(N=S2(=O)CCCC2)cc2ncnc(Nc3ccc(F)cc3O[C@H]3COC[C@H]3OCC(F)F)c12 (racemic) [Example 10.4] | 3 | 104 | 
47 | Cc1cc(N=S2(=O)CCCC2)cc2ncnc(Nc3ccc(F)cc3O[C@@H]3CNC[C@H]3O)c12 [Example 3.5] | 6 |  | 97
48 | CO[C@@H]1CNC[C@H]1Oc1cc(F)ccc1Nc1ncnc2cc(N=S3(=O)CCCC3)cc(C)c12 [Example 4.2] | 8 | 87 | 
49 | Cc1cc(N=S2(=O)CCCC2)cc2ncnc(Nc3ccc(F)cc3O[C@H]3COC[C@H]3O)c12 (single isomer, unassigned) [Example 14.6] | 2 | 101 | 
50 | Cc1cc(N=S(C)(C)=O)cc2ncnc(Nc3ccc(F)cc3O[C@@H]3CN(C)C[C@H]3O)c12 [Example 2.6] | 91 | 63 | 
51 | CS(C)(=O)=Nc1cc(Cl)c2c(Nc3ccc(F)cc3O[C@H]3COC[C@H]3O)ncnc2c1 (racemic) [Example 1.3] | 3 | 95 | 
52 | Cc1cc(N=S(C)(C)=O)cc2ncnc(Nc3cccnc3O[C@@H]3CNC[C@H]3O)c12 [Example 3.2] | 47 | 66 | 
53 | COc1cc(N=S(C)(=O)C2CC2)cc2ncnc(Nc3ccc(F)cc3O[C@H]3COC[C@H]3O)c12 (mixture of isomers) [Example 9.17] | 33 | 92 | 
54 | Cc1cc(N=S(C)(C)=O)cc2ncnc(Nc3ccc(F)cc3O[C@H]3COC[C@H]3OCCF)c12 (racemic) [Example 10.2] | 2 | 93 | 
55 | Cc1cc(N=S2(=O)CCC2)cc2ncnc(Nc3ccc(Cl)cc3O[C@@H]3COC[C@H]3O)c12 [Example 1.30] | 3 | 93 | 
56 | CO[C@@H]1CN(CC(F)F)C[C@H]1Oc1cc(F)ccc1Nc1ncnc2cc(N=S(C)(C)=O)cc(C)c12 [Example 5.4] | 44 | 35 | 
